Test results: patent US20150175599A1, “FAAH Inhibitors” (Ironwood Pharmaceuticals, Inc., priority 2010, published 2015)
Read-outs that look alike come from different tables or passages of the source.

Biological target: T1, FAAH (Rattus norvegicus, UniProt P97612)
T1 construct: For the assay of FAAH activity in rat brain membrane (RBM) homogenates; tissue Charles River (animals); host or cells: rat whole brain, membrane fraction
T1 sequence (P97612 1-579): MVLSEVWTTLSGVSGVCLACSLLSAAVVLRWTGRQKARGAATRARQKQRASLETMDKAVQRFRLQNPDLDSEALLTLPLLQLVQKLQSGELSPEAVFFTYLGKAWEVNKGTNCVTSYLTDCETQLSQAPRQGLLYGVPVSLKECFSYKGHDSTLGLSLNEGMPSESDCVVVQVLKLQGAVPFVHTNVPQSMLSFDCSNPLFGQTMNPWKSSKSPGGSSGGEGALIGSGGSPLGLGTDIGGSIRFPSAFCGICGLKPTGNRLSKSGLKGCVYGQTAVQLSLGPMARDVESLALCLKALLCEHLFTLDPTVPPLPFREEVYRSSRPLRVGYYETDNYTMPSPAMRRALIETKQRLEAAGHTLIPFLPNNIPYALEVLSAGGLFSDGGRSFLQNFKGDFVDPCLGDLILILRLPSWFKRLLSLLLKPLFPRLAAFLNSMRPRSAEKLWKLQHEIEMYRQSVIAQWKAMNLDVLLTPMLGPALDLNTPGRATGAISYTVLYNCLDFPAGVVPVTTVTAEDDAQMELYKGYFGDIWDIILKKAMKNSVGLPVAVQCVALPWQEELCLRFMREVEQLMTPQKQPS
Experiment: FAAH inhibition, rat brain membrane homogenate assay
Assay type: biochemical
Method: Adult rats (Charles River CD strain, female, 200 g) were anaesthetized with isofluorane and rapidly decapitated. Each brain was quickly removed and chilled in tubes (3 brains per tube) on ice. About 25 mL of “homogenization buffer” (20 mM HEPES buffer, pH 7.0, with 1 mM MgCl2) was added to 15 to 20 g of brain. The brains were homogenized on ice for 1 minute using an Omni GLH homogenizer (Omni International, Marietta, Ga.). The homogenates were then transferred to three centrifuge tubes and centrifuged at 36,500 g for 20 minutes at 4° C. The supernatant was discarded and each pellet was re-suspended in 25 mL homogenization buffer. The re-suspended material was again centrifuged (36,500 g, 20 minutes at 4° C.). Pellets were combined by re-suspension in 10 mL of homogenization buffer and incubated in a 37° C. water bath for 15 minutes. The tubes were then placed on ice for 5 minutes followed by centrifugation at 36,500 g for 20 minutes at 4° C. The supernatant was discarded and the membrane pellets were then re-suspended in 40 mL of “re-suspension buffer” (50 mM Tris-HCl buffer, pH 7.4, containing 1 mM EDTA and 3 mM MgCl2). A Bradford Protein assay was performed to determine protein concentration. The protein was aliquotted into screw cap Cryo tubes each containing −400 μL, flash-frozen in liquid nitrogen and stored at −80° C. until used for the assay. A similar protocol was used to obtain brain membrane homogenates from mice
FAAH activity was assayed in the respective homogenates described herein (Rat brain, Mouse brain or Human brain) with certain of the exemplary compounds described above using a modification of the method of Omeir et al. (1995 Life Sci. 56:1999) and Fowler et al. (1997 J. Pharmacol. Exp. Ther. 283:729). For the assay of FAAH activity in rat brain membrane (RBM) homogenates, RBM homogenates (7 μg protein in 20 μL final volume of 10 mM Tris pH 6.5) were mixed with 180 μL of a mixture of the following: […] unlabelled anandamide (AEA), 0.03 Ci radio labeled anandamide [ethanolamine 1-^3H](40-60 Ci/mmol; product number ART-626, American Radiolabelled Chemicals, St. Louis, Mo.), 1 mg/mL Bovine Serum Albumin (fatty acid-free BSA, electrophoresis grade, Sigma, St. Louis, Mo.), 10 mM Tris-HCl (pH 6.5), and 1 mM EDTA in the presence and absence of test compounds (vehicle was DMSO at a final concentration of 1%) and incubated for 10 minutes at 37° C. Samples were placed on ice to terminate the reactions.
The ^3H-ethanolamine product and un-reacted ^3H-anandamide substrate were then separated by either: (1) using chloroform/methanol extraction or (2) passing the reaction mixture through a glass fiber filter containing activated charcoal. Samples were extracted with chloroform/methanol by adding 0.4 mL of chloroform/methanol (1:1 v/v), vigorously mixing the samples, and separating the aqueous and organic phases by centrifugation. Radioactivity (corresponding to FAAH-catalyzed breakdown of ^3H-anandamide) found in aliquots (0.2 mL) of the aqueous phase was determined by liquid scintillation counting with quench correction. IC50 values were determined as described by Jonsson et al. (2001 Br. J Pharmacol. 133:1263). Alternatively, reactions were purified using a modification of the solid-phase extraction method described by Wilson et al (2003 Anal. Biochem. 318: 270). This method was modified as follows: after reactions were incubated at 37° C. for 10 minutes and chilled on ice, the reaction mixtures were acidified by adding 10 μL of sodium phosphate solution[0.5M (pH 2.0)]. Next, 90 μL aliquots of the acidified reaction mixtures were applied to activated charcoal (that had been previously washed with methanol as described by Wilson et al. (supra)) containing 80 μL of water on top of a glass fiber filter, centrifuged, and the radioactivity in the eluate was counted as described previously by Wilson et al. (supra). […]

[1] = rat brain homogenate, average activity, read-out: Rat Brain Extract FAAH IC50

`COc1cc(NC(=O)C(=O)c2c(C)n(Cc3ccc(Cl)cc3)c3ccc(C(=O)N(C)C)cc23)ccn1` [Compound 6, 1-(4-chlorobenzyl)-3-(2-(2-methoxypyridin-4-ylamino)-2-oxoacetyl)-N,N,2-trimethyl-1H-indole-5-carboxamide] was tested, and the IC50 [1] was 100 to 1000 nM.
With `COc1ccc(Cn2c(C)c(C(=O)C(=O)Nc3ccnc(OC)c3)c3cc(OC)c(C)cc32)nc1` [Compound 96, 2-(5-methoxy-1-((5-methoxypyridin-2-yl)methyl)-2,6-dimethyl-1H-indol-3-yl)-N-(2-methoxypyridin-4-yl)-2-oxoacetamide] the IC50 [1] was < 100 nM.
`COc1cc(NC(=O)C(=O)c2c(C)n(Cc3ncc(Cl)cc3F)c3ccc(C)cc23)ccn1` [Compound 33, 2-(1-((5-chloro-3-fluoropyridin-2-yl)methyl)-2,5-dimethyl-1H-indol-3-yl)-N-(2-methoxypyridin-4-yl)-2-oxoacetamide] was tested, and the IC50 [1] was < 100 nM.
In the case of `COc1cc(NC(=O)C(=O)c2c(C)n(Cc3ccc(Cl)cc3)c3ccc(OC)c(OC)c23)ccn1` [Compound 56, 2-(1-(4-chlorobenzyl)-4,5-dimethoxy-2-methyl-1H-indol-3-yl)-N-(2-methoxypyridin-4-yl)-2-oxoacetamide], the IC50 [1] is reported as 1000 to 10000 nM.
For `COc1cc(NC(=O)C(=O)c2c(C)n(Cc3ncc(Cl)cc3F)c3cc(Cl)c(OC)cc23)ccn1` [Compound 97, 2-(6-chloro-1-((5-chloro-3-fluoropyridin-2-yl)methyl)-5-methoxy-2-methyl-1H-indol-3-yl)-N-(2-methoxypyridin-4-yl)-2-oxoacetamide], the IC50 [1] was < 100 nM.
In the case of `COc1ccc2c(c1)c(C(=O)C(=O)Nc1ccnc(O)c1)c(C)n2Cc1ccc(Cl)cc1` [Compound 50, 2-(1-(4-chlorobenzyl)-5-methoxy-2-methyl-1H-indol-3-yl)-N-(2-hydroxypyridin-4-yl)-2-oxoacetamide], the IC50 [1] is reported as 1000 to 10000 nM.
With `C=Cc1ccc2c(c1)c(C(=O)C(=O)Nc1ccnc(OC)c1)c(C)n2Cc1ccc(Cl)cc1` [Compound 27, 2-(1-(4-chlorobenzyl)-2-methyl-5-vinyl-1H-indol-3-yl)-N-(2-methoxypyridin-4-yl)-2-oxoacetamide] the IC50 [1] was < 100 nM.
`COc1cc(NC(=O)C(=O)c2c(C)n(Cc3ccc(Cl)cc3)c3ccc([N+](=O)[O-])cc23)ccn1` [Compound 19, 2-(1-(4-chlorobenzyl)-2-methyl-5-nitro-1H-indol-3-yl)-N-(2-methoxypyridin-4-yl)-2-oxoacetamide] was tested, and the IC50 [1] was < 100 nM.
In the case of `COc1cc(NC(=O)C(=O)c2c(C)n(Cc3ccc(Cl)cn3)c3ncc(C)cc23)ccn1` [Compound 75, (1-((5-chloropyridin-2-yl)methyl)-2,5-dimethyl-1H-pyrrolo[2,3-b]pyridin-3-yl)-N-(2-methoxypyridin-4-yl)-2-oxoacetamide], the IC50 [1] is reported as < 100 nM.
`COc1cc(NC(=O)C(=O)c2c(C)n(Cc3ccc(Cl)cn3)c3ccc(N)cc23)ccn1` [Compound 65, 2-(5-amino-1-((5-chloropyridin-2-yl)methyl)-2-methyl-1H-indol-3-yl)-N-(2-methoxypyridin-4-yl)-2-oxoacetamide] was tested, and the IC50 [1] was < 100 nM.
With `COc1cc(NC(=O)C(=O)c2c(C)n(Cc3ccc(Cl)cn3)c3cc(OC)c(Cl)cc23)ccn1` [Compound 67, 2-(5-chloro-1-((5-chloropyridin-2-yl)methyl)-6-methoxy-2-methyl-1H-indol-3-yl)-N-(2-methoxypyridin-4-yl)-2-oxoacetamide] the IC50 [1] was < 100 nM.
For `COc1cc(NC(=O)C(=O)c2c(C)n(Cc3ncc(Cl)cc3Cl)c3ccccc23)ccn1` [Compound 31, 2-(1-((3,5-dichloropyridin-2-yl)methyl)-2-methyl-1H-indol-3-yl)-N-(2-methoxypyridin-4-yl)-2-oxoacetamide], the IC50 [1] was < 100 nM.
With `COc1cc(NC(=O)C(=O)c2c(C)n(Cc3ccc(Cl)cc3)c3cc(OC)c(OC)cc23)ccn1` [Compound 44, 2-(1-(4-chlorobenzyl)-5,6-dimethoxy-2-methyl-1H-indol-3-yl)-N-(2-methoxypyridin-4-yl)-2-oxoacetamide] the IC50 [1] was < 100 nM.
Molecule `COc1cc(NC(=O)C(=O)c2c(C)n(Cc3ccc(Cl)cc3)c3ccc(N(C)C(=O)OC(C)(C)C)cc23)ccn1` [Compound 7, Tert-butyl(1-(4-chlorobenzyl)-3-(2-((2-methoxypyridin-4-yl)amino)-2-oxoacetyl)-2-methyl-1H-indol-5-yl)(methyl)carbamate] has an IC50 [1] of 100 to 1000 nM.
For `COc1cc(NC(=O)C(=O)c2c(C)n(Cc3ncc(Cl)cc3Cl)c3ccc(C)cc23)ccn1` [Compound 30, 2-(1-((3,5-dichloropyridin-2-yl)methyl)-2,5-dimethyl-1H-indol-3-yl)-N-(2-methoxypyridin-4-yl)-2-oxoacetamide], the IC50 [1] was < 100 nM.
In the case of `COc1ccc(Cn2c(C)c(C(=O)C(=O)Nc3ccnc(OC)c3)c3cc(OC)c(Cl)cc32)nc1` [Compound 98, 2-(6-chloro-5-methoxy-1-((5-methoxypyridin-2-yl)methyl)-2-methyl-1H-indol-3-yl)-N-(2-methoxypyridin-4-yl)-2-oxoacetamide], the IC50 [1] is reported as < 100 nM.
In the case of `COc1cc(NC(=O)C(=O)c2c(C)n(Cc3ncc(F)cc3F)c3cc(F)c(OC)cc23)ccn1` [Compound 101, 2-(1-((3,5-difluoropyridin-2-yl)methyl)-6-fluoro-5-methoxy-2-methyl-1H-indol-3-yl)-N-(2-methoxypyridin-4-yl)-2-oxoacetamide], the IC50 [1] is reported as < 100 nM.
In the case of `COc1cc(NC(=O)C(=O)c2c(C)n(Cc3ncc(F)cc3F)c3ccc(C)cc23)ccn1` [Compound 88, 2-(1-((3,5-difluoropyridin-2-yl)methyl)-2,5-dimethyl-1H-indol-3-yl)-N-(2-methoxypyridin-4-yl)-2-oxoacetamide], the IC50 is reported as < 100 nM.
In the case of `COc1cc(NC(=O)C(=O)c2c(C)n(Cc3ccc(Cl)cc3)c3ccc(OC)c(F)c23)ccn1` [Compound 59, 2-(1-(4-chlorobenzyl)-4-fluoro-5-methoxy-2-methyl-1H-indol-3-yl)-N-(2-methoxypyridin-4-yl)-2-oxoacetamide], the IC50 [1] is reported as < 100 nM.
In the case of `COc1ccc2c(c1)c(C(=O)C(=O)Nc1ccnc(OC)c1)c(C)n2Cc1cnc(Cl)cn1` [Compound 12, 2-(1-((5-chloropyrazin-2-yl)methyl)-5-methoxy-2-methyl-1H-indol-3-yl)-N-(2-methoxypyridin-4-yl)-2-oxoacetamide], the IC50 [1] is reported as < 100 nM.
`COc1cc(NC(=O)C(=O)c2c(C)n(Cc3ccc(Cl)cc3)c3ccc(N(C)C)cc23)ccn1` [Compound 17, 2-(1-(4-chlorobenzyl)-5-(dimethylamino)-2-methyl-1H-indol-3-yl)-N-(2-methoxypyridin-4-yl)-2-oxoacetamide] was tested, and the IC50 [1] was < 100 nM.
